Laboratory results taken from patent publication US20120156704A1, “IN VITRO METHOD FOR DETECTING GP91PHOX AS A MARKER OF OXIDATIVE STRESS” (BIOS INTERNATIONAL S.R.L., priority 2009, published 2012).

Tests used:
[1] = tested on: platelets; test: sgp91phox in supernatant of platelets by ELISA with the monoclonal antibody of the invention; type: cell-based, human
[2] = tested on: platelet NADPH oxidase; test: Platelet NADPH oxidase activation: ROS production in AA-stimulated platelets by cytofluorimetry; type: cell-based, human; settings: AA 0.5 mM
Experimental: To obtain platelet rich plasma (PRP) from HC and HS patients, samples were centrifuged 15 min at 180 g. To avoid leukocyte contamination, only the top 75% of the PRP was collected. Platelet pellet was suspended in HEPES buffer, pH 7.4 (2×10^8 platelets/mL, unless otherwise noted) and processed differently according to the type of experiment to be carried out.
To test NADPH oxidase activity, the levels of ROS in platelets from 5 human healthy subjects were measured by cytofluorimetry in the presence and in the absence of specific NADPH oxidase inhibitors, such as apocynin and the gp91^phox blocking peptide gp91ds-tat. Platelets were incubated with 2′,7′-dichlorofluorescin diacetate […] for 15 minutes at 37° C. After incubation, 100 μl of the sample was treated with arachidonic acid (AA, 0.5 mM) in presence or less of apocynin (100 μM) or the gp91^phox specific blocking peptide (gp91ds-tat, 50 μM). Then 10 μl of each sample was diluted with 1 ml of PBS and analyzed by flow cytometry. Basal OFR level in resting platelets was expressed as mean fluorescence (MF), AA-induced OFR production was expressed as stimulation index (S.I.=mean level of fluorescence in AA-stimulated platelet/mean level of fluorescence in unstimulated platelets) (Pignatelli P et al. Blood (1998) 95:484-490.

[3] = tested on: polymorphonuclear leukocytes (PMN); test: sgp91phox in supernatant of PMN by ELISA; type: cell-based, human; settings: PMA 10 μM; unstimulated 1.53±0.66
Experimental: Polymorphonuclear leukocytes (PMN) were isolated from freshly taken EDTA-blood from healthy volunteers (n=5, healthy subjects) by dextran enhanced sedimentation of red blood cells, Ficoll-Histopaque density centrifugation, lysis of remaining erythrocytes with distilled water and washing of cells with Hank's balanced salt solution (HBSS) in the absence of any divalent cations. Finally, the cell pellet was suspended in 1 ml of HBSS and stimulated with or without 10 μM of phorbol 12-myristate 13-acetate (PMA). To evaluate sgp91phox in PMN the supernatant was analyzed by ELISA method as above reported.
(§1) To evaluate the source of sgp91phox we isolated platelets, PMN and lymphocytes/monocytes from the same blood sample.

[4] = tested on: sgp91phox; test: sgp91phox in sera of the clinical study by the ELISA assay of the invention; type: in vivo, human; settings: group B
Experimental: The samples tested were sera from the same sampling of the clinical study of Example 2, stored frozen at −80° C. up to the use.
The proprietary primary policlonal antibody against SEQ ID NO 1 and the primary monoclonal antibody against SEQ ID NO 3 (i.e., the proprietary antibody of the present invention from the hybridoma deposited at ATCC on Jun. 10, 2010 under No. SD-6311) already described above were diluted 1:100 with coating buffer (catalog. C3041, Sigma Chemicals) and 100 μl of this primary antibody solution were placed in 96-well ELISA plates for 1 h at room temperature (RT). After incubation the content of each well in the plates was removed and the wells were washed three times with washing buffer (Tris-buffered saline 50 mM, pH 8.0, Tween 20; catalog. T9039, Sigma Chemicals).
Subsequently, 200 μl of saturation buffer containing 1% BSA (catalog T6789, Sigma Chemicals) were added to the wells for 30 minutes at RT. The wells were then washed three times with the washing buffer, as above.
100 μl of standard or of sample to be assayed were then added to the wells and the incubation was carried out for 1 h at RT.
A standard curve was obtained by using increasing concentrations of the gp91^phox peptide of SEQ ID NO 1 or of the peptide of SEQ ID NO 3 (i.e., 64 pg/ml; 32 pg/ml; 16 pg/ml; 8 pg/ml) obtained by diluting the peptides in buffer, and incubated for 1 h see FIG. 4, panel A and panel B.
100 μl of a secondary goat-anti-rabbit IgG-HRP antibody (Santa Cruz, catalog sc2004) or of a secondary goat anti-mouse IgG-HRP antibody (Santa Cruz, catalog sc 2060) diluted 1:100 with coating buffer, were then incubated at RT for 1 h.
After aspirating the contents of the wells and washing three times with washing buffer, as described above, 100 μl of substrate (Santa Cruz, catalog SK-4400) were added to the wells for 30 minutes at RT. At the end of the incubation, 100 μl of H2SO4 2M (Merck, catalog 30148297) were also added to the wells. Subsequently, reading of the developed color was carried out with a spectrophotometer at 450 nm.
The final concentration of the samples were calculated by using the proper standard curve obtained with a gp91^phox peptide, as described above.

[5] = tested on: hypercholesterolemic patients; settings: group B, diet + atorvastatin 10 mg/day, end of 30 days, p<0.001
Experimental: The study was carrier out in 30 consecutive patients (16 male and 14 female subjects) suffering from hypercholesterolemia, defined as LDL cholesterol levels above 200 mg/dl, 52±4 years of age.
During this phase of the study the patients were subjected to a low-fat diet containing average quantities of macronutrients that corresponded to a 7% energy coming from fats and 200 mg/day of cholesterol coming from diet, according to ATPIII guidelines.
Whole blood anticoagulated samples were from fasting patients (5 ml) in between 8.00 and 9.00 in the morning. The samples were then kept for 1 hour at 37° C. and centrifuged at 3000×g for 10 minutes to obtain sera. The supernatant thus obtained was kept frozen at −80° C. until used for the assays. […]
Briefly, a 10 ml aliquot of urine was extracted on a C-18 SPE column and the recovery was verified by addition of a radioactive tracer (tritiated PGF2α-III). […] The concentration of PGF2α-III was corrected for the recovery and creatinine excretion, and was expressed as picogram per milligram (pg/ml) of creatinine. […]
The samples thus obtained were stored at −20° C. overnight and then analyzed by SDS-PAGE and immunoblot.

[6] = tested on: platelet gp91phox; test: gp91phox expression on platelets by flow cytometry in the clinical study; type: in vivo, human; settings: after 30 days of treatment
Experimental: To evaluate gp91^phox expression on platelets, 50 μl of stabilized whole blood (see above) were incubated for 30 minutes with 5 μl of monoclonal antibody against gp91^phox (20 μg/ml; Santa Cruz), and 5 μl of PE-conjugated monoclonal antibody against CD61 (Coulter) (20 μg/ml), respectively, as described in Martino F. et al., PEDIATRICS (2008), supra. The samples incubated with the monoclonal antibody against gp91^phox were then incubated with a secondary IgG FITC-conjugated antibody against mouse. After incubation, 1 ml of 1× PBS was added to proceed with the cytofluorimetric analysis.
Isotypic controls were carried out by preparing a sample with a non-specific anti-mouse IgG-FITC e IgG1-PE with the same ratio f/p for FITC e PE. The adequate concentration of the monoclonal antibodies used was determined in preliminary tests (not shown).
All the samples were analyzed within 15 minutes from dilution. FITC fluorescence was detected with an Epics XL-MCL cytometer (Coulter, Milan Italy) at 525 nm, while PE fluorescence was detected at 575 nm. All the parameters were grouped with a 4-decade logarithmic amplification.
Spectral overlap was balanced by fluorescence compensation, as defined in preliminary tests. […] Platelets and platelet-platelet aggregates were identified by logical gating according to their CD61 phycoerythrin fluorescence and forward scatter characteristics. […]

[7] = tested on: lymphocytes/monocytes; test: sgp91phox in supernatant of lymphocytes/monocytes by ELISA; type: cell-based, human; settings: LPS 100 ng/ml; unstimulated 1.11±0.55
Experimental: Blood samples were collected in heparinized tubes (10 IU/ml). Lynphocytes/Monocyte were isolated after centrifugation of the blood from healthy volunteers (n=5, healthy subjects) with a polysucrose-sodium diatrizoate solution, 1.077 g/ml density and 280 mOsm osmolarity (Lymphoprep; Nycomed, Oslo, Norway) at 800 g at 20° C. The Lynphocytes/Monocyte cell layer was collected and the cells were thus washed two times in a solution of cold phosphate-buffered saline (pH 7.2), supplemented with 1% fetal calf serum and 2 mmol/l EDTA (Sigma-Aldrich, Milano, Italy). The cell suspension was stimulated with or without lipopolysaccharide (100 ng/ml) (LPS), sgp91 content in the supernatant was evaluated by ELISA method as above reported.
as §1

[8] = 30 days atorvastatin vs baseline

Molecule: CCCCC/C=C\C/C=C\C/C=C\C/C=C\CCCC(=O)O [AA, arachidonic acid]
- sgp91phox in supernatant of stimulated platelets ([1]; AA-stimulated, unstimulated 1.18±0.84): 7.05 ± 2.04 pg/mL
- ROS production after platelet activation [2]: increase

Molecule: CCCCCCCCCCCCCC(=O)O[C@@H]1[C@@H](C)[C@@]2(O)[C@@H](C=C(CO)C[C@]3(O)C(=O)C(C)=C[C@@H]23)[C@@H]2C(C)(C)[C@]12OC(C)=O [PMA, phorbol 12-myristate 13-acetate]
- sgp91phox in supernatant of stimulated PMN [3]: 11.85 ± 3.23 pg/mL

Molecule: COc1cc(C(C)=O)ccc1O [apocynin]
- levels of sgp91phox shed in the cell medium of AA-activated platelets ([1]; specific NADPH oxidase inhibitors, ELISA of supernatant): decrease
- effect on AA-induced ROS production in platelets ([2]; apocynin 100 μM, gp91ds-tat 50 μM): inhibited

Molecule: CC(C)c1c(C(=O)Nc2ccccc2)c(-c2ccccc2)c(-c2ccc(F)cc2)n1CC[C@@H](O)C[C@@H](O)CC(=O)O [atorvastatin]
- reduction in sgp91phox, ELISA with monoclonal antibody (SD-6311) [4, 8]: −25%
- reduction in sgp91phox, ELISA with polyclonal antibody [4, 8]: −33%
- sgp91phox serum level, ELISA with monoclonal antibody (SD-6311) ([4]; end of 30 days atorvastatin, from 32.5±4.6 at baseline, p<0.001): 23.5 ± 6.5 pg/mL
- sgp91phox serum level, ELISA with polyclonal antibody ([4]; end of 30 days atorvastatin, from 36.6±5.6 at baseline, p<0.001): 24.5 ± 7.7 pg/mL
- serum total cholesterol ([5]; from 276±46 at baseline): 208 ± 38 mg/dL
- urinary isoprostanes levels ([5]; from 383±51 at baseline): 241±58 pg/mg of creatinine
- variation in platelet gp91phox after treatment [6]: no significant variation

Molecule: lipopolysaccharide [LPS]
- sgp91phox in supernatant of stimulated lymphocytes/monocytes [7]: 7.5 ± 2.64 pg/mL
